Test results reported in patent publication US20080312255A1 (ASTRAZENECA AB, priority 2007, published 2008).
Where a name gives a salt, the structure may show the parent alone.

Target: S. aureus GyrB ATPase (Staphylococcus aureus, UniProt P0A0K8)
Test: S. aureus GyrB ATPase inhibition (ammonium molybdate/malachite green phosphate detection)
Assay type: biochemical
Conditions: compound concentration of 1 μM
Protocol: S. aureus GyrB ATPase Inhibition Activity: Compounds may be tested for inhibition of S. aureus GyrB ATPase activity using an ammonium molybdate/malachite green-based phosphate detection assay (Lanzetta, P. A., L. J. Alvarez, P. S. Reinach, and O. A. Candia, 1979, 100: 95-97). Assays can be performed in multiwell plates in 30 μl reactions containing: 50 mM Hepes buffer pH 7.5, 75 mM ammonium acetate, 8.0 mM magnesium chloride, 0.5 mM ethylenediaminetetraacetic acid, 5% glycerol, 1.0 mM 1,4-Dithio-DL-threitol, 200 nM bovine serum albumin, 1.0 μg/ml sheared salmon sperm DNA, 250 pM E. coli GyrA, 250 pM S. aureus GyrB, 250 μM ATP, and compound in dimethylsulfoxide. Reactions can be quenched with […] of ammonium molybdate/malachite green detection reagent containing 1.2 mM malachite green hydrochloride, 8.5 mM ammonium molybdate tetrahydrate, and 1 M hydrochloric acid. Plates can be read in an absorbance plate reader at 650 nm and percent inhibition values can be calculated using dimethylsulfoxide (2%)-containing reactions as 0% inhibition and EDTA-containing ([…]) reactions as 100% inhibition controls. An IC50 measurement of compound potency for each compound can be determined from reactions performed in the presence of 10 different compound concentrations.
Compounds of the invention were tested in an assay substantially similar to the assay described above for measuring the inhibition of S. aureus GyrB ATPase. Percent inhibition of S. aureus GyrB ATPase at a compound concentration of 1 μM (unless otherwise noted) is disclosed in the following table: […]

S. aureus GyrB ATPase, sequence (P0AES4 whole entry): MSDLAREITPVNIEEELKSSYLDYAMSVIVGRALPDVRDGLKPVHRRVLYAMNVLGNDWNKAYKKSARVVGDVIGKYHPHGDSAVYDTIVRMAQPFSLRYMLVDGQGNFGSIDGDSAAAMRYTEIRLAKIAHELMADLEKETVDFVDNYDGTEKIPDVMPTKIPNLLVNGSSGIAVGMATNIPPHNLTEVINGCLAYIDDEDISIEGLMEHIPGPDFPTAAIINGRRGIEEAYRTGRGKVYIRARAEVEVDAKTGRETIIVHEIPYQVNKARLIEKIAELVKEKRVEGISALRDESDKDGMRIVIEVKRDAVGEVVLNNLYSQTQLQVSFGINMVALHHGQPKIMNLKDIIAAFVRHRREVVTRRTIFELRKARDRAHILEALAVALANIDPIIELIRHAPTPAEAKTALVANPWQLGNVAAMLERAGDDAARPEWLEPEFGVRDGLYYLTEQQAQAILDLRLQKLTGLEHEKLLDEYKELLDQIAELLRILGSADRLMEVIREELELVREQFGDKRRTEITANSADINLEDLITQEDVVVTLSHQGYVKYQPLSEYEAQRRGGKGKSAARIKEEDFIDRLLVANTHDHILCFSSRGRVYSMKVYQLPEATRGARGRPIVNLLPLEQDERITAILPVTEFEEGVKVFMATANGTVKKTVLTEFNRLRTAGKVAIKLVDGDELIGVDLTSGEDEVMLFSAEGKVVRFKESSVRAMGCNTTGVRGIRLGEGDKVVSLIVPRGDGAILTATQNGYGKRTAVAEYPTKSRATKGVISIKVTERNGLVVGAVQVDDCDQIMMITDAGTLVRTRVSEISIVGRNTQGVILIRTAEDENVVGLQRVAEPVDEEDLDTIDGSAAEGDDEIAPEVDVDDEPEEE
S. aureus GyrB ATPase, sequence (P0A0K8 whole entry): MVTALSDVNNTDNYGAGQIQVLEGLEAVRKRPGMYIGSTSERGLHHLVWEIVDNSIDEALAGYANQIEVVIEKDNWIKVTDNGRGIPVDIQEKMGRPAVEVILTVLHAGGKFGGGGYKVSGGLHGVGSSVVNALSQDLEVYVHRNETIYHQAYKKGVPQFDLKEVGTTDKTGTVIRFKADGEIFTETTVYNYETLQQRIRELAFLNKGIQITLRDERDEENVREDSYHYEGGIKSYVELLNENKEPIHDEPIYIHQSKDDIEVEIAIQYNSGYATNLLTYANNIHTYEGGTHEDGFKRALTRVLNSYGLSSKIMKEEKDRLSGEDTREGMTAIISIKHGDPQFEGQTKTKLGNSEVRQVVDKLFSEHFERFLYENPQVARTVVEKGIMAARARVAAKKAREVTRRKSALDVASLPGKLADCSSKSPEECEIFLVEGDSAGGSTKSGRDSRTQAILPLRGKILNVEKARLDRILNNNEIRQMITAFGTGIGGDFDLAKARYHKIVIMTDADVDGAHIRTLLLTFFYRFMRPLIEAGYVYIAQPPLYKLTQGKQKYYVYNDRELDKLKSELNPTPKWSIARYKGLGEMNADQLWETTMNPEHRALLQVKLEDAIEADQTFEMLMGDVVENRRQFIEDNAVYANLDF

Point of comparison: `CO[C@H]1CN(c2nc(-c3nccn3COCC[Si](C)(C)C)c(C(=O)O)s2)CC[C@H]1NC(=O)c1[nH]c(C)c(Cl)c1Cl` [Example 16, 2-((3S,4R)-4-{[(3,4-Dichloro-5-methyl-1H-pyrrol-2-yl)carbonyl]amino}-3-methoxypiperidin-1-yl)-4-(1-{[2-(trimethylsilyl)ethoxy]methyl}-1H-imidazol-2-yl)-1,3-thiazole-5-carboxylic acid], inhibition at 1 µM 100%. Against it:
- CO[C@H]1CN(c2nc(-c3ncccn3)c(C(=O)O)s2)CC[C@H]1NC(=O)c1[nH]c(C)c(Cl)c1Cl [Example 1, 2-((3S,4R)-4-{[(3,4-Dichloro-5-methyl-1H-pyrrol-2-yl)carbonyl]amino}-3-methoxypiperidin-1-yl)-4-pyrimidin-2-yl-1,3-thiazole-5-carboxylic acid] — lower, 99.2%
- CO[C@H]1CN(c2nc(-c3ccncn3)c(C(=O)O)s2)CC[C@H]1NC(=O)c1[nH]c(C)c(Cl)c1Cl [Example 2, 2-((3S,4R)-4-{[(3,4-Dichloro-5-methyl-1H-pyrrol-2-yl)carbonyl]amino}-3-methoxypiperidin-1-yl)-4-pyrimidin-4-yl-1,3-thiazole-5-carboxylic acid] — higher, 101%
- CO[C@H]1CN(c2nc(-c3nccs3)c(C(=O)O)s2)CC[C@H]1NC(=O)c1[nH]c(C)c(Cl)c1Cl [Example 3, 2′-((3S,4R)-4-{[(3,4-Dichloro-5-methyl-1H-pyrrol-2-yl)carbonyl]amino}-3-methoxypiperidin-1-yl)-2,4′-bi-1,3-thiazole-5′-carboxylic acid] — lower, 98.6%
- Cc1[nH]c(C(=O)N[C@@H]2CCN(c3nc(-c4ncccn4)c(C(=O)O)s3)C[C@@H]2F)c(Cl)c1Cl [Example 4, 2-((3S,4R)-4-{[(3,4-Dichloro-5-methyl-1H-pyrrol-2-yl)carbonyl]amino}-3-fluoropiperidin-1-yl)-4-pyrimidin-2-yl-1,3-thiazole-5-carboxylic acid] — lower, 97.7%
- Cc1[nH]c(C(=O)N[C@@H]2CCN(c3nc(-c4ccncn4)c(C(=O)O)s3)C[C@@H]2F)c(Cl)c1Cl [Example 5, 2-((3S,4R)-4-{[(3,4-Dichloro-5-methyl-1H-pyrrol-2-yl)carbonyl]amino}-3-fluoropiperidin-1-yl)-4-pyrimidin-4-yl-1,3-thiazole-5-carboxylic acid] — lower, 99.4%
- Cc1[nH]c(C(=O)N[C@@H]2CCN(c3nc(-c4nccs4)c(C(=O)O)s3)C[C@@H]2F)c(Cl)c1Cl [Example 6, 2′-((3S,4R)-4-{[(3,4-Dichloro-5-methyl-1H-pyrrol-2-yl)carbonyl]amino}-3-fluoropiperidin-1-yl)-2,4′-bi-1,3-thiazole-5′-carboxylic acid] — lower, 99.9%
- CO[C@H]1CN(c2nc(-c3ccccn3)c(C(=O)O)s2)CC[C@H]1NC(=O)c1[nH]c(C)c(Cl)c1Cl [Example 7, 2-((3S,4R)-4-{[(3,4-Dichloro-5-methyl-1H-pyrrol-2-yl)carbonyl]amino}-3-methoxypiperidin-1-yl)-4-pyridin-2-yl-1,3-thiazole-5-carboxylic acid] — lower, 97.1%
- Cc1[nH]c(C(=O)N[C@@H]2CCN(c3nc(-c4ccccn4)c(C(=O)O)s3)C[C@@H]2F)c(Cl)c1Cl [Example 8, 2-((3S,4R)-4-{[(3,4-Dichloro-5-methyl-1H-pyrrol-2-yl)carbonyl]amino}-3-fluoropiperidin-1-yl)-4-pyridin-2-yl-1,3-thiazole-5-carboxylic acid] — higher, 106%
- CO[C@H]1CN(c2nc(-c3cc(N(C)C)nc(N(C)C)n3)c(C(=O)O)s2)CC[C@H]1NC(=O)c1[nH]c(C)c(Cl)c1Cl [Example 9, 4-[2,6-Bis(dimethylamino)pyrimidin-4-yl]-2-((3S,4R)-4-{[(3,4-dichloro-5-methyl-1H-pyrrol-2-yl)carbonyl]amino}-3-methoxypiperidin-1-yl)-1,3-thiazole-5-carboxylic acid] — higher, 102%
- Cc1[nH]c(C(=O)N[C@@H]2CCN(c3nc(-c4cc(N(C)C)nc(N(C)C)n4)c(C(=O)O)s3)C[C@@H]2F)c(Cl)c1Cl [Example 10, 4-[2,6-Bis(dimethylamino)pyrimidin-4-yl]-2-((3S,4R)-4-{[(3,4-dichloro-5-methyl-1H-pyrrol-2-yl)carbonyl]amino}-3-fluoropiperidin-1-yl)-1,3-thiazole-5-carboxylic acid] — higher, 101%
- CO[C@H]1CN(c2nc(-c3cnccn3)c(C(=O)O)s2)CC[C@H]1NC(=O)c1[nH]c(C)c(Cl)c1Cl [Example 12, 2-((3S,4R)-4-{[(3,4-Dichloro-5-methyl-1H-pyrrol-2-yl)carbonyl]amino}-3-methoxypiperidin-1-yl)-4-pyrazin-2-yl-1,3-thiazole-5-carboxylic acid] — higher, 105%
- CO[C@H]1CN(c2nc(-c3nc4ccccc4s3)c(C(=O)O)s2)CC[C@H]1NC(=O)c1[nH]c(C)c(Cl)c1Cl [Example 13, 4-(1,3-Benzothiazol-2-yl)-2-((3S,4R)-4-{[(3,4-dichloro-5-methyl-1H-pyrrol-2-yl)carbonyl]amino}-3-methoxypiperidin-1-yl)-1,3-thiazole-5-carboxylic acid] — higher, 101%
- Cc1[nH]c(C(=O)N[C@@H]2CCN(c3nc(-c4cnccn4)c(C(=O)O)s3)C[C@@H]2F)c(Cl)c1Cl [Example 14] — lower, 98.3%
- Cc1[nH]c(C(=O)N[C@@H]2CCN(c3nc(-c4nc5ccccc5s4)c(C(=O)O)s3)C[C@@H]2F)c(Cl)c1Cl [Example 15, 4-(1,3-Benzothiazol-2-yl)-2-((3S,4R)-4-{[(3,4-dichloro-5-methyl-1H-pyrrol-2-yl)carbonyl]amino}-3-fluoropiperidin-1-yl)-1,3-thiazole-5-carboxylic acid] — higher, 101%
- COCn1ccnc1-c1nc(N2CC[C@@H](NC(=O)c3[nH]c(C)c(Cl)c3Cl)[C@@H](OC)C2)sc1C(=O)O [Example 17, 2-((3S,4R)-4-{[(3,4-Dichloro-5-methyl-1H-pyrrol-2-yl)carbonyl]amino}-3-methoxypiperidin-1-yl)-4-[1-(methoxymethyl)-1H-imidazol-2-yl]-1,3-thiazole-5-carboxylic acid] — lower, 97.7%
- CO[C@H]1CN(c2nc(-c3ncc[nH]3)c(C(=O)O)s2)CC[C@H]1NC(=O)c1[nH]c(C)c(Cl)c1Cl [Example 18, 2-((3S,4R)-4-{[(3,4-Dichloro-5-methyl-1H-pyrrol-2-yl)carbonyl]amino}-3-methoxypiperidin-1-yl)-4-(1H-imidazol-2-yl)-1,3-thiazole-5-carboxylic acid] — higher, 101%
- COCn1ccnc1-c1nc(N2CC[C@@H](NC(=O)c3[nH]c(C)c(Cl)c3Cl)[C@@H](F)C2)sc1C(=O)O [Example 19, 2-((3S,4R)-4-{[(3,4-Dichloro-5-methyl-1H-pyrrol-2-yl)carbonyl]amino}-3-fluoropiperidin-1-yl)-4-[1-(methoxymethyl)-1H-imidazol-2-yl]-1,3-thiazole-5-carboxylic acid] — higher, 102%
- Cc1[nH]c(C(=O)N[C@@H]2CCN(c3nc(-c4ncc[nH]4)c(C(=O)O)s3)C[C@@H]2F)c(Cl)c1Cl [Example 20, 2-((3S,4R)-4-{[(3,4-Dichloro-5-methyl-1H-pyrrol-2-yl)carbonyl]amino}-3-fluoropiperidin-1-yl)-4-(1H-imidazol-2-yl)-1,3-thiazole-5-carboxylic acid] — lower, 98.6%
- CO[C@H]1CN(c2nc(-c3nccn3C)c(C(=O)O)s2)CC[C@H]1NC(=O)c1[nH]c(C)c(Cl)c1Cl [Example 21, 2-((3S,4R)-4-{[(3,4-Dichloro-5-methyl-1H-pyrrol-2-yl)carbonyl]amino}-3-methoxypiperidin-1-yl)-4-(1-methyl-1H-imidazol-2-yl)-1,3-thiazole-5-carboxylic acid] — lower, 99.1%
- CO[C@H]1CN(c2nc(-c3n(C)cc[n+]3C)c(C(=O)O)s2)CC[C@H]1NC(=O)c1[nH]c(C)c(Cl)c1Cl [Example 22, 2-[5-Carboxy-2-((3S,4R)-4-{[(3,4-dichloro-5-methyl-1H-pyrrol-2-yl)carbonyl]amino}-3-methoxypiperidin-1-yl)-1,3-thiazol-4-yl]-1,3-dimethyl-1H-imidazol-3-ium trifluoroacetate] — higher, 101%
- CO[C@H]1CN(c2nc(-c3ccn[nH]3)c(C(=O)O)s2)CC[C@H]1NC(=O)c1[nH]c(C)c(Cl)c1Cl [Example 23, 2-((3S,4R)-4-{[(3,4-Dichloro-5-methyl-1H-pyrrol-2-yl)carbonyl]amino}-3-methoxypiperidin-1-yl)-4-(1H-pyrazol-5-yl)-1,3-thiazole-5-carboxylic acid] — the same, 100%
- Cc1[nH]c(C(=O)N[C@@H]2CCN(c3nc(-c4ccn[nH]4)c(C(=O)O)s3)C[C@@H]2F)c(Cl)c1Cl [Example 24, 2-((3S,4R)-4-{[(3,4-Dichloro-5-methyl-1H-pyrrol-2-yl)carbonyl]amino}-3-fluoropiperidin-1-yl)-4-(1H-pyrazol-5-yl)-1,3-thiazole-5-carboxylic acid] — lower, 65.9%
- COCCn1ccnc1-c1nc(N2CC[C@@H](NC(=O)c3[nH]c(C)c(Cl)c3Cl)[C@@H](OC)C2)sc1C(=O)O [Example 25, 2-((3S,4R)-4-{[(3,4-Dichloro-5-methyl-1H-pyrrol-2-yl)carbonyl]amino}-3-methoxypiperidin-1-yl)-4-[1-(2-methoxyethyl)-1H-imidazol-2-yl]-1,3-thiazole-5-carboxylic acid] — lower, 98.3%
